Among the data in a melting point compilation (Tetko et al.; mined from patent text by program, amines drawn as free bases though some values may be those of a salt) are melting point values, retold here.

Each structure is given as a SMILES string.

One may read the melting point as the temperature, or range, at which the solid turns liquid.

In the case of `CC(C)C1C(=O)N(COC(=O)c2c(Cl)cccc2Cl)S(=O)(=O)N1C` (stereo not given), the melting point is 70 to 71.5 °C.
The value for `CC1=NC(=S)N=C1CCCCNC(=O)c1ccccc1` was 180 to 184 °C; that for `COc1ccc(-n2nc(C(C)(C)C)cc2NC(=O)c2nccc3cc(Oc4cc(NC(C)=O)ncn4)ccc23)cc1` was 156 °C.
The result for `O=C1OC2(c3ccccc3)CCCN2c2ccccc21` (stereo not given) reads 152 °C.
The result for `CCOC(=O)C1=C(COCc2nnn[nH]2)NC(C)=C(C(=O)OC)C1c1cccc(Cl)c1Cl` (stereo not given) reads 112 to 114 °C.
Regarding `CC1(CCC(O)(c2ccccc2)c2ccccc2)CCCCC12OCCO2` (stereo not given), the melting point was in the range of 115 to 117 °C.
The molecule `CC12CCC3C(CCC4CCCCC43C)C1CC(F)C2=O` (stereo not given) registered a melting point of 148 to 150 °C.
The result for `COC(=O)c1ccc(OCCCl)cc1` reads 56 to 58 °C; that for `Cc1sc(-c2cccs2)nc1O`, 152 to 153 °C; that for `CCc1nc(C2CC2)c[nH]1`, 104 to 106 °C.
The value for `CC(C)c1cccc(C(C)C)c1NC(=O)CN1CN(c2ccccc2)C2(CCCCC2)C1=O` was 251 to 253 °C; that for `COC(=O)C(=CN(C)C)c1sc(Cl)nc1COc1ccccc1` was 114 °C; that for `CC(C)NS(=O)(=O)c1cccc(NC(=O)c2cnn3c(C(F)F)cc(-c4ccc(C(F)(F)F)cc4)nc23)c1` was 229 °C.
The result for `CCc1ccccc1NC(=O)c1ccccc1CN1C(=O)C2(COc3cc4c(cc32)CCO4)c2ccccc21` (stereo not given) reads 184 to 186 °C; that for `CCCCn1c(N)nc2ccc(C3CCc4cncn43)cc21` (stereo not given), 196 °C; that for `COc1ccc(C(=O)Nc2cccc(C(=O)O)c2)c2c1OCCO2`, 283 to 284 °C.
In turn, `CCOC(=O)Cc1cc(O)nc(N(CC)CC)n1` had a melting point of 98 to 100 °C.
The result for `CN(C)CCNc1ccc([N+](=O)[O-])c2sc3ccccc3c(=O)c12` reads 177 to 179 °C; that for `CCOC(=O)C(=O)Nc1ccc2[nH]c(=O)oc2c1`, 180 to 186 °C; that for `CC(=O)CC(=O)NC1CCC(C)CC1` (stereo not given), 111 °C.
The value for `CCCCNC(=O)NS(=O)(=O)c1ccccc1-c1nn(C)c(=O)o1` was 110 to 115 °C; that for `Cc1cc2ncc(-c3ccc(C(C)(C)C)cc3)c(N)n2n1` was 218 °C.
The value for `CCCCCCCCCCCCC1=CC(=O)c2c(Cl)cccc2C1=O` was 57.5 to 58.5 °C; that for `Cc1ccc(-n2c(=O)c(C)nc3cccnc32)cc1` was 215 to 216 °C; that for `COn1c(C)nc2c(NCc3c(C)cccc3C)cc(C(=O)O)cc21` was 248 to 249 °C.
Molecule `Cc1nc(Cl)c2c(c1O)COC2c1ccccc1` (stereo not given) gave a melting point of 230 °C.
Regarding `O=C(O)c1ccc2c(c1)CCCC2NC(=O)c1cccc(Oc2ccccc2)c1` (stereo not given), the melting point was in the range of 155 to 160 °C.
In turn, `COC(=O)c1ccc2c(c1)ncn2N` displayed a melting point of 194 to 195 °C.
The result for `CC(C)OC1=CC2=CCC3C4CCC(=O)C4(C)CCC3C2(C)CC1` (stereo not given) reads 147 to 151 °C.
The result for `CCCCNC(=O)Nc1ccc(S(C)=O)cc1C(=O)NCC1CCN(C(c2ccccc2)c2ccccc2)CC1` (stereo not given) reads 178 to 179 °C; that for `O=C(O)COCCCCC1CCCN1c1cnc(-c2ccccc2)c(-c2ccccc2)n1` (stereo not given), 138 to 140 °C; that for `Cc1cc(=S)cc(C)n1CCNC(=O)OC(C)(C)C`, 175 to 178 °C.
The value for `Cc1oc(-c2ccccc2)nc1COc1ccc(C=C2SC(=O)NC2=O)cc1` was 225 to 226 °C; that for `Cc1sc2c(c1C(=O)c1ccccc1)CCC2C(N)=O` (stereo not given) was 165 to 168 °C; that for `O=C(O)CCNC(=O)c1cc([N+](=O)[O-])c2ccccc2c1O` was 254 °C.
In turn, `O=c1c2ccccc2nc2n1CCc1c-2[nH]c2ccc(Cl)cc12` showed a melting point of 310 to 312 °C.
The result for `O=C1N(CC2OC(O)C(O)C(O)C2O)c2ccccc2C12COc1cc3c(cc12)OCCO3` (stereo not given) reads 122 to 126 °C; that for `CCON=C(C(C)=NO)c1ccc(OC[Si](C)(C)c2ccc(F)cc2)cc1`, 100 to 102 °C; that for `CC(=O)C(C(C)=O)C(=O)Nc1ccccc1`, 119 to 121 °C.
The result for `N=C(Nc1ccc(CCNCc2ccccc2Cl)cc1)c1cccs1` reads 81 to 82 °C; that for `C=C(C)C(=O)NCc1cc(C)c(O)c(C)c1`, 136 to 138 °C; that for `CC1(C)CCC(C)(C)c2c1ccc(CS(=O)(=O)c1ccccc1)c2N`, 156 to 157 °C.
The value for `CC(C)COC(=O)Nc1ccc(C2=CCS(=O)CC2)c(F)c1` (stereo not given) was 212 to 214 °C; that for `COC(=O)N1CCN(c2n[nH]c(-c3ccc(Cl)cc3)c2-c2ccncc2)CC1` was 264 to 265 °C; that for `COc1nscc1C(=O)O` was 182 to 185 °C.
In turn, `COc1ccc(Cl)cc1S(=O)(=O)N1C2CCC1CN(CC(=O)Nc1ccccc1C)C2` yielded a melting point of 180 to 181 °C.
Regarding `COC(=O)C1=C(C)NC(C)=C(C(=O)OC)C1c1cccc(NC(=S)NNC(=O)CN2CCC(c3cccc(OC)c3)CC2)c1`, the melting point fell in the range of 113 to 116 °C.
The value for `C(=CCN(c1ccccc1)c1cccc2ccccc12)CN(c1ccccc1)c1cccc2ccccc12` was 140 to 142 °C.
The result for `CN(O)C(=O)c1ccc(CCCCc2ccccc2C(=O)O)cc1` reads 94 to 95 °C; that for `CCOc1cc2c(cc1OC)C(c1ccc(C(=O)O)cc1)=N[C@@H]1CCOC[C@H]21`, 203 to 205 °C; that for `COc1ccc(-c2ccncc2)cc1`, 94 to 96 °C.
The result for `C1=C(c2ccc3c(c2)OCO3)CCN(Cc2n[nH]c3ccccc23)C1` reads 139 to 141 °C; that for `O=[N+]([O-])c1cccc(CN2CCC(c3cc(-c4ccc(Cl)cc4)[nH]n3)CC2)c1`, 174 to 176 °C.
Turning to `CNC(=O)c1ccccc1Nc1nc(Nc2ccc(OC)c3c2N(C)C(=O)CCC3)ncc1Cl`, the melting point was in the range of 165 to 167 °C.
The value for `CNC(=C[N+](=O)[O-])NCCCCCCCCCCCCN` was 123 to 125 °C; that for `O=C(O)CCCCCCC1C(=O)CCC1=O` was 131 to 141 °C; that for `CC(C)(C)OC(=O)N[C@H]1CC[C@H](CCN2CCN(c3cc(C#N)cc(C(F)(F)F)c3)CC2)CC1` was 139 to 140 °C.
Regarding `COc1cc(Nc2c(C#N)cnc3cc(-c4ccc(CN(C)C)cc4)ccc23)c(Cl)cc1Cl`, the melting point was in the range of 187 to 189 °C.
As for `CCOC(=O)C(C)(C(=O)Nc1cc(Cl)cc(Cl)c1)S(C)=O` (stereo not given), the melting point was 124 to 127 °C.
On to `O=C1OC(COc2ccccc2)CN1CCOC1CCCCO1` (stereo not given), for which the melting point is 78 to 80 °C.
`c1ccc2c(c1)CC1CN(Cc3c[nH]c4ncccc34)CCN21` (stereo not given) came in with a melting point of 197 to 198 °C.
The result for `CCCc1c(OCCCCc2ccc3cc(OCc4ccccc4)c(OCc4ccccc4)cc3c2)ccc(C(=O)OCc2ccccc2)c1O` reads 87 to 89 °C.
Turning to `COC(=O)[C@H](CCCCNC(=O)OCc1ccccc1)n1c2ccccc2c2ccccc21`, the melting point lay within 97 to 99 °C.
`CC1=NN(C)C(=O)C1(Cl)C(=O)c1cc(C)ccc1[N+](=O)[O-]` (stereo not given): the melting point is 110 to 111 °C.
The result for `CC(CCCNC(=O)CCCCCBr)C(F)(F)F` (stereo not given) reads 96 to 98 °C.
`CSc1ncccc1NC(=O)CCCCCCCCSc1nc2ccccc2s1` yielded a melting point of 107 to 108 °C.
For `CCCCc1ncc(/C=C(\C)C(=O)O)n1Cc1ccccc1Cl`, the melting point was in the range of 228 to 229 °C.
As for `CC(=O)C1=C(O)C(=C(C)Nc2ccc(S)cc2)C(=O)OC1=O`, the melting point lay in the range of 207 to 210 °C.
The value for `O=C(Cl)c1ccc(Cl)cc1Sc1ccccc1` was 94 to 96 °C; that for `OCCCCCNc1nccc2cc3c(cc12)OCO3` was 132 to 134 °C.
The result for `CCOC(=O)C1=C(N)NC2=C(C(=O)CCC2)C1c1cccc2ccccc12` (stereo not given) reads 279 °C.
Turning to `Cc1nccc(-c2ccccc2)c1CC[C@H]1C[C@H](O)CC(=O)O1` (relative stereo), the melting point lay in the range of 107 to 108 °C.
Consider `CCC(=NO)c1ccc(OCCCCCCCc2cc(C)no2)cc1`, for which the melting point was 88 to 89 °C.
The value for `CCCCNC(=O)NS(=O)(=O)c1c(C(=O)OCC)cnn1-c1ccc2ccccc2n1` was 140 to 142 °C; that for `Cc1noc(NS(=O)(=O)c2ccccc2-c2ccc(-c3ncco3)cc2CC(=O)N(C)C)c1C` was 89 to 96 °C.
The result for `CCC(=C(c1ccc(O)cc1)c1ccc(O)cc1)c1ccc(/C=C/C(=O)O)cc1` reads 280 to 281 °C; that for `COc1ccnc(CSc2nc3ccc(F)cc3[nH]2)c1C`, 128 °C.
The result for `N=c1[nH]c2ccc(Cl)cc2c2nc(-c3ccco3)nn12` reads 131 to 133 °C.
Molecule `OCCc1ccc2c(c1)C(O)c1ccccc1CO2` (stereo not given) returned a melting point of 135 to 137 °C.
Molecule `CCc1nc(NC(=N)N)sc1-c1cccc([N+](=O)[O-])c1` came in with a melting point of 149 to 151 °C.
The value for `O=C(Nc1ccccc1N1CCc2ccccc21)C1CC1` was 83 to 85 °C; that for `CCCc1ccc(NC(=O)c2cccnc2NCc2ccc(OC)nc2)cc1C(F)(F)F` was 51 to 61 °C; that for `CCOC(=O)c1cc(OCc2ccccc2)ccc1OCC(F)(F)F` was 145 to 146 °C.
The result for `CC(C)(C)c1nnc2ccc(Cl)nn12` reads 150 to 152 °C; that for `Cc1cccc(C(O)(c2cccc(C)c2)c2cccc(-c3ccc4ccccc4c3)c2)c1`, 58 to 60 °C; that for `Nc1ccc2c(ccn2O)n1`, 227 to 228 °C.
The molecule `Cn1c([N+](=O)[O-])cnc1-c1nnc(N)s1` came in with a melting point of 266 to 268 °C.
The value for `O=C1CCC(N2Cc3c(CNC(=O)c4ccccc4)cccc3C2=O)C(=O)N1` (stereo not given) was 228 to 230 °C; that for `COc1ccc(Cc2nc(OCc3ccccc3)cc3cc(OC)c(OC)cc23)cc1OC` was 114 to 116 °C.
The value for `COc1ccc(NC(=O)CCl)c(OC)c1` was 90 to 91 °C.
